The values that follow are results of earlier work, collected in patent EP2392318A1 (Laboratorios Liconsa, S.A., priority 2010, dated 2011).

Take `CCCCc1nc(Cl)c(CO)n1Cc1ccc(-c2ccccc2-c2nn[nH]n2)cc1` [losartan, 2-butyl-4-chloro-1-[[2'-(1H-tetrazol-5-yl)[1,1'-biphenyl]-4-yl]methyl]-1H-imidazole-5-methanol]: under “after being orally administered”, the terminal half-life result is given as “about 2 hours”. Further, under “in the gastrointestinal tract”, the orally absorbed entry is “about 33%”.
